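96-well plates; 48 h exposure; 5 concentrations. Endpoints by linear interpolation between flanking doses. Not reached: highest tested concentration assigned. Abbreviation: GI50, concentration required for 50% inhibition of growth.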 The source made the active and inactive calls. Cut-off read from the data, not from the text of the source: active = GI50 up to about 1.1 µM and inactive = higher.
Key:
Assay in all cases: NCI tumour cell line growth inhibition, 48 h
[1] = tested on: PC-3
[2] = tested on: EKVX
[3] = tested on: SNB-75
[4] = tested on: SK-MEL-2
[5] = tested on: KM12
[6] = tested on: SK-MEL-28
[7] = tested on: A498
[8] = tested on: COLO 205
[9] = tested on: 786-0
[10] = tested on: SF-295
[11] = tested on: MDA-MB-435
[12] = tested on: IGROV-1
[13] = tested on: SK-OV-3
[14] = tested on: SF-268
[15] = tested on: UACC-62
[16] = tested on: HOP-92
[17] = tested on: MOLT-4
[18] = tested on: Malme-3M
[19] = tested on: T47D
[20] = tested on: SNB-19
[21] = tested on: NCI-H522
[22] = tested on: OVCAR-8
[23] = tested on: CAKI-1
[24] = tested on: HOP-62
[25] = tested on: NCI/ADR-RES
[26] = tested on: OVCAR-3
[27] = tested on: UACC-257
[28] = tested on: UO-31
[29] = tested on: SF-539
[30] = tested on: HCT-116
[31] = tested on: K562
[32] = tested on: OVCAR-4
[33] = tested on: SW-620
[34] = tested on: CCRF-CEM
[35] = tested on: HT-29
[36] = tested on: BT-549
[37] = tested on: MDA-N
[38] = tested on: HCC 2998
[39] = tested on: NCI-H23
[40] = tested on: TK-10
[41] = tested on: DU-145
[42] = tested on: MDA-MB-231
[43] = tested on: SR
[44] = tested on: Hs-578T
[45] = tested on: RPMI-8226
[46] = tested on: SK-MEL-5
[47] = tested on: NCI-H460
[48] = tested on: OVCAR-5
[49] = tested on: RXF 393
[50] = tested on: A549
[51] = tested on: NCI-H226
[52] = tested on: LOX IMVI
[53] = tested on: HCT-15
[54] = tested on: MCF7
[55] = tested on: ACHN
[56] = tested on: SN12C
[57] = tested on: U-251
[58] = tested on: HL-60
[59] = tested on: M14

What does the source list for CN(C)CCNC(=O)c1ccc(Cl)c2cc3ccccc3nc12?
GI50 [1]: 0.807 µM (active); GI50 [2]: 1.7 µM (inactive); GI50 [3]: 1.67 µM (inactive); GI50 [4]: 2.01 µM (inactive); GI50 [5]: 0.807 µM (active); GI50 [6]: 1.82 µM (inactive); GI50 [7]: 0.143 µM (active); GI50 [8]: 0.446 µM (active); GI50 [9]: 0.362 µM (active); GI50 [10]: 0.885 µM (active); GI50 [11]: 0.951 µM (active); GI50 [12]: 0.708 µM (active); GI50 [13]: 2.06 µM (inactive); GI50 [14]: 0.962 µM (active); GI50 [15]: 0.652 µM (active); GI50 [16]: 0.187 µM (active); GI50 [17]: 0.265 µM (active); GI50 [18]: 0.731 µM (active); GI50 [19]: 3.01 µM (inactive); GI50 [20]: 0.998 µM (active); GI50 [21]: 0.612 µM (active); GI50 [22]: 0.481 µM (active); GI50 [23]: 0.448 µM (active); GI50 [24]: 1 µM (active); GI50 [25]: 0.927 µM (active); GI50 [26]: 1.22 µM (inactive); GI50 [27]: 0.885 µM (active); GI50 [28]: 0.404 µM (active); GI50 [29]: 0.946 µM (active); GI50 [30]: 0.408 µM (active); GI50 [31]: 0.553 µM (active); GI50 [32]: 0.653 µM (active); GI50 [33]: 0.453 µM (active); GI50 [34]: 0.394 µM (active); GI50 [35]: 0.422 µM (active); GI50 [36]: 2.35 µM (inactive); GI50 [37]: 0.889 µM (active); GI50 [38]: 1.16 µM (inactive); GI50 [39]: 0.632 µM (active); GI50 [40]: 1.07 µM (active); GI50 [41]: 0.991 µM (active); GI50 [42]: 1.05 µM (active); GI50 [43]: 0.339 µM (active); GI50 [44]: 0.759 µM (active); GI50 [45]: 0.463 µM (active); GI50 [46]: 1.16 µM (inactive); GI50 [47]: 0.218 µM (active); GI50 [48]: 1.83 µM (inactive); GI50 [49]: 1.07 µM (active); GI50 [50]: 0.389 µM (active); GI50 [51]: 0.918 µM (active); GI50 [52]: 0.23 µM (active); GI50 [53]: 0.54 µM; GI50 [54]: 0.381 µM (active); GI50 [55]: 0.424 µM (active); GI50 [56]: 0.577 µM (active); GI50 [57]: 0.6 µM (active); GI50 [58]: 0.608 µM (active); GI50 [59]: 1.23 µM (inactive)

Which results are given for COc1cc2c(c(OC)c1OC)C(=O)[C@H](Br)[C@H]2NC(=O)NCCCl?
GI50 [1]: > 100 µM (inactive); GI50 [2]: 50.1 µM (inactive); GI50 [3]: > 100 µM (inactive); GI50 [4]: > 100 µM (inactive); GI50 [5]: 72.8 µM (inactive); GI50 [6]: > 100 µM (inactive); GI50 [7]: > 100 µM (inactive); GI50 [8]: 50.8 µM (inactive); GI50 [9]: > 100 µM (inactive); GI50 [10]: > 100 µM (inactive); GI50 [11]: 40.5 µM (inactive); GI50 [12]: 68.1 µM (inactive); GI50 [13]: 59 µM (inactive); GI50 [14]: 49.9 µM (inactive); GI50 [15]: 73.3 µM (inactive); GI50 [16]: > 100 µM (inactive); GI50 [17]: 46.7 µM (inactive); GI50 [18]: > 100 µM (inactive); GI50 [19]: > 100 µM (inactive); GI50 [20]: > 100 µM (inactive); GI50 [21]: > 100 µM (inactive); GI50 [22]: > 100 µM (inactive); GI50 [23]: > 100 µM (inactive); GI50 [24]: > 100 µM (inactive); GI50 [25]: > 100 µM (inactive); GI50 [26]: 68.2 µM (inactive); GI50 [27]: > 100 µM (inactive); GI50 [28]: > 100 µM (inactive); GI50 [29]: > 100 µM (inactive); GI50 [30]: 82.6 µM (inactive); GI50 [31]: 58.2 µM (inactive); GI50 [32]: 71 µM (inactive); GI50 [33]: > 100 µM (inactive); GI50 [34]: 23.6 µM (inactive); GI50 [35]: > 100 µM (inactive); GI50 [36]: 38.6 µM (inactive); GI50 [37]: 35.2 µM (inactive); GI50 [38]: > 100 µM (inactive); GI50 [39]: > 100 µM (inactive); GI50 [40]: > 100 µM (inactive); GI50 [41]: > 100 µM (inactive); GI50 [42]: > 100 µM (inactive); GI50 [43]: 76.2 µM (inactive); GI50 [44]: > 100 µM (inactive); GI50 [45]: > 100 µM (inactive); GI50 [46]: 37.2 µM (inactive); GI50 [47]: 80.4 µM (inactive); GI50 [48]: > 100 µM (inactive); GI50 [49]: 97.1 µM (inactive); GI50 [50]: 79.6 µM (inactive); GI50 [51]: 88.5 µM (inactive); GI50 [52]: 47.1 µM (inactive); GI50 [53]: 62.5 µM; GI50 [54]: > 100 µM (inactive); GI50 [55]: > 100 µM (inactive); GI50 [56]: > 100 µM (inactive); GI50 [57]: 51.1 µM (inactive); GI50 [58]: 75.5 µM (inactive); GI50 [59]: 86.1 µM (inactive)
